Assay results reported in ChEMBL document CHEMBL1268832, “Discovery of a potent tubulin polymerization inhibitor: synthesis and evaluation of water-soluble prodrugs of benzophenone analog” (Bioorg Med Chem Lett, 2010).
Converted amounts (≈) assume the structure as drawn. The source made the active and inactive calls. The rule behind the calls is not given here.

Experiments:
HL-60 = test: Antiproliferative activity against human HL60 cells after 72 hrs by MTT assay; format: functional, cell-based; conditions: HL-60, 72 h
Mus musculus [1] = test: Toxicity in human CX-1 cells xenografted in mouse assessed as chage in body weight at 5 mg/kg, ip for every 4 days 4 doses (Rbv = 24.5%); format: organism-based; design: dose 5 mg/kg, route intraperitoneal; conditions: in vivo, 96 h
Mus musculus [2] = test: Toxicity in human CX-1 cells xenografted in mouse assessed as chage in body weight at 10 mg/kg, ip for every 4 days 4 doses (Rbv = 24.5%); format: organism-based; design: dose 10 mg/kg, route intraperitoneal; conditions: in vivo, 96 h
CX-1 [3] = test: Antitumor activity against human CX-1 cells xenografted in mouse assessed as tumor growth inhibition at 5 mg/kg, ip for every 4 days 4 doses; format: functional; design: scale not given: the % may be the effect or the level left; conditions: route intraperitoneal
CX-1 [4] = test: Antitumor activity against human CX-1 cells xenografted in mouse assessed as tumor growth inhibition at 10 mg/kg, ip for every 4 days 4 doses; format: functional; design: scale not given: the % may be the effect or the level left; conditions: route intraperitoneal
CX-1 [5] = test: Antitumor activity against human CX-1 cells xenografted in mouse assessed as mouse survival at 5 mg/kg, ip for every 4 days 4 doses; format: functional, organism-based; design: dose 5 mg/kg
CX-1 [6] = test: Antitumor activity against human CX-1 cells xenografted in mouse assessed as mouse survival at 10 mg/kg, ip for every 4 days 4 doses; format: functional, organism-based; design: dose 10 mg/kg
[7] = Metabolic stability in dog liver microsomes assessed as compound remaining at 5 uM after 1 hr; format: ADME, Canis lupus familiaris, Microsome; conditions: read-out: Stability
[8] = Aqueous solubility of the compound in deionized water; format: physicochemical
[9] = Metabolic stability in human liver microsomes assessed as compound remaining at 5 uM after 1 hr; format: ADME, Microsome; conditions: read-out: Stability
[10] = Half life in Sprague-Dawley rat at 10 mg/kg, iv; format: ADME, organism-based; design: dose 10 mg/kg, route intravenous; conditions: in vivo
MDA-MB-231 = test: Antiproliferative activity against P-gp expressing multidrug-resistant human MDA-MB-231 cells after 72 hrs by MTT assay; format: functional, cell-based; conditions: MDA-MB-231, 72 h
Mus musculus [11] = test: Toxicity in human HCT116 cells xenografted in mouse assessed as chage in body weight at 10 mg/kg, ip for every 4 days 4 doses (Rbv = -5.7%); format: organism-based, HCT-116; design: dose 10 mg/kg, route intraperitoneal; conditions: in vivo, 96 h
HCT-116 [12] = test: Antitumor activity against human HCT116 cells xenografted in mouse assessed as tumor growth inhibition at 10 mg/kg, ip for every 4 days 4 doses; format: functional; design: scale not given: the % may be the effect or the level left; conditions: route intraperitoneal
HCT-116 [13] = test: Antitumor activity against human HCT116 cells xenografted in mouse assessed as mouse survival at 10 mg/kg, ip for every 4 days 4 doses; format: functional, organism-based; design: dose 10 mg/kg
Mus musculus [14] = test: Toxicity in human HCT116 cells xenografted in mouse assessed as chage in body weight at 5 mg/kg, ip for every 4 days 4 doses (Rbv = -5.7%); format: organism-based, HCT-116; design: dose 5 mg/kg, route intraperitoneal; conditions: in vivo, 96 h
HCT-116 [15] = test: Antitumor activity against human HCT116 cells xenografted in mouse assessed as tumor growth inhibition at 5 mg/kg, ip for every 4 days 4 doses; format: functional; design: scale not given: the % may be the effect or the level left; conditions: route intraperitoneal
HCT-116 [16] = test: Antitumor activity against human HCT116 cells xenografted in mouse assessed as mouse survival at 5 mg/kg, ip for every 4 days 4 doses; format: functional, organism-based; design: dose 5 mg/kg

`COc1cc(C(=O)c2ccc(-c3csc(NC(=O)[C@@H](N)Cc4ccccc4)n3)cc2-n2cncn2)cc(OC)c1OC` showed an IC50 (HL-60) of 89 nM, an Activity (Mus musculus [1]) of 28.9% and an Activity (Mus musculus [2]) of 24.5%. For the same compound, the Activity (CX-1 [3]) was 21%, the Activity (CX-1 [4]) was 43% and the Activity (CX-1 [5]) was “Active”. The Activity (CX-1 [6]) was “Active”.

With `COc1cc(C(=O)c2ccc(-c3csc(NC(=O)[C@@H](N)CO)n3)cc2-n2cncn2)cc(OC)c1OC` the IC50 (HL-60) was 81 nM.

For `COc1cc(C(=O)c2ccc(-c3csc(NC(=O)[C@@H](N)CC(C)C)n3)cc2-n2cncn2)cc(OC)c1OC`, the IC50 (HL-60) was 76 nM.

`COc1cc(C(=O)c2ccc(-c3csc(N)n3)cc2-n2cncn2)cc(OC)c1OC` showed a remaining at 1 h, 5 µM [7] of 60%, a solubility [8] of under 100 µg/mL and a remaining at 1 h, 5 µM [9] of 60%. The half-life [10] was 1.65 min and the IC50 (MDA-MB-231) was 9.8 nM.

Work on `COc1cc(C(=O)c2ccc(-c3csc(NC(=O)[C@@H](N)C(C)C)n3)cc2-n2cncn2)cc(OC)c1OC` yielded a remaining at 1 h, 5 µM [7] of 10%, an IC50 (HL-60) of 110 nM and an Activity (Mus musculus [1]) of 25.7%. The Activity (Mus musculus [2]) was 14.7%, the Activity (CX-1 [3]) was 28% and the Activity (CX-1 [4]) was 64%. For the same compound, the Activity (CX-1 [5]) was “Active”, the Activity (CX-1 [6]) was “Active” and the Activity (Mus musculus [11]) was 5.1%. The Activity (HCT-116 [12]) was 88%, the Activity (HCT-116 [13]) was “Active” and the solubility [8] was 930 µg/mL (≈ 1730 µM). It also gave a remaining at 1 h, 5 µM [9] of 15% and a half-life [10] of 0.41 min.

For `COc1cc(C(=O)c2ccc(-c3csc(NC(=O)[C@H](N)Cc4ccc(Cl)cc4)n3)cc2-n2cncn2)cc(OC)c1OC`, the IC50 (HL-60) was 920 nM.

Work on `COc1cc(C(=O)c2ccc(-c3csc(NC(=O)[C@H](N)c4ccccc4)n3)cc2-n2cncn2)cc(OC)c1OC` yielded an IC50 (HL-60) of 280 nM.

In the case of `COc1cc(C(=O)c2ccc(-c3csc(NC(=O)[C@@H](N)CC4CCCCC4)n3)cc2-n2cncn2)cc(OC)c1OC`, the IC50 (HL-60) is reported as 86 nM.

In the case of `COc1cc(C(=O)c2ccc(-c3csc(NC(=O)[C@H](N)Cc4ccc(F)cc4)n3)cc2-n2cncn2)cc(OC)c1OC`, the IC50 (HL-60) is reported as 740 nM.

Compound `COc1cc(C(=O)c2ccc(-c3csc(NC(=O)CN)n3)cc2-n2cncn2)cc(OC)c1OC` has an IC50 (HL-60) of 27 nM, an Activity (Mus musculus [1]) of 22.2% and an Activity (Mus musculus [2]) of 21%. For the same compound, the Activity (CX-1 [3]) was 40%, the Activity (CX-1 [4]) was 44% and the Activity (CX-1 [5]) was “Active”.

`COc1cc(C(=O)c2ccc(-c3csc(NC(=O)[C@H](N)Cc4ccc(C(F)(F)F)cc4)n3)cc2-n2cncn2)cc(OC)c1OC` showed an IC50 (HL-60) of over 2000 nM.

With `COc1cc(C(=O)c2ccc(-c3csc(NC(=O)[C@H](C)N)n3)cc2-n2cncn2)cc(OC)c1OC` the IC50 (HL-60) was 13 nM, the Activity (Mus musculus [14]) was -1.7% and the Activity (HCT-116 [15]) was 62%. The Activity (HCT-116 [16]) was “Active”.

For `COc1cc(C(=O)c2ccc(-c3csc(NC(=O)C(C)(C)N)n3)cc2-n2cncn2)cc(OC)c1OC`, the IC50 (HL-60) was 5 nM, the Activity (Mus musculus [1]) was 24.8% and the Activity (Mus musculus [2]) was 26.7%. For the same compound, the Activity (CX-1 [3]) was 23%, the Activity (CX-1 [4]) was 20% and the Activity (CX-1 [5]) was “Active”. The Activity (CX-1 [6]) was “Active”.

Compound `COc1ccc(/C=C\c2cc(OC)c(OC)c(OC)c2)cc1N` has an IC50 (MDA-MB-231) of 45 nM.

Work on `COc1cc(C(=O)c2ccc(-c3csc(NC(=O)[C@@H]4CCCN4)n3)cc2-n2cncn2)cc(OC)c1OC` yielded an IC50 (HL-60) of 98 nM.
